pIC50, pKi: −log10 of the molar value.
Experiments:
[1] = target: Sigma intracellular receptor 2 (Homo sapiens, UniProt Q5BJF2); assay: Displacement of [3H]-DTG from S2R in human Jurkat cell membranes after 1 hr in presence of (+)-pentazocine by liquid scintillation counting
SH-SY5Y = assay: Cytotoxicity against human SH-SY5Y cells assessed as reduction in cell viability after 72 hrs by MTT assay; format: cell-based
[2] = target: Sigma non-opioid intracellular receptor 1 (Homo sapiens, UniProt Q99720); assay: Displacement of [3H](+)-pentazocine from S1R in human Jurkat cell membranes after 2 hrs by liquid scintillation counting
Sequence of Sigma non-opioid intracellular receptor 1 (Q99720 whole entry): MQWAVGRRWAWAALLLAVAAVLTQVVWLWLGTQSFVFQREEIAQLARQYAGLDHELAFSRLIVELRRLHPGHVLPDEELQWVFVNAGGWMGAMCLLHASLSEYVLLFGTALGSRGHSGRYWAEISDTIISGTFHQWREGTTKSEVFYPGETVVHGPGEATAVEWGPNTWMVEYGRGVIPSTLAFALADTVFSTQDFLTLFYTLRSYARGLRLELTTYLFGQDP

S1R (sigma-1 receptor) = assay: Selectivity index, ratio of IC50 for human SH-SY5Y cells to Ki for S1R in human Jurkat cell membranes; format: toxicity, cell-based

Sequence of Sigma intracellular receptor 2 (Q5BJF2 whole entry): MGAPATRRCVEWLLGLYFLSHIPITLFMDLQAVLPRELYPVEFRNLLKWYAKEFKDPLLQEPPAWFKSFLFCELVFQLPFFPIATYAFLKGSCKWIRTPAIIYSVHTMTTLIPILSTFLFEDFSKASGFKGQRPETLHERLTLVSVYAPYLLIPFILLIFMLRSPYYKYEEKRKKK

| pKi [1] | pKi [2] | Structure (SMILES) | pIC50 (SH-SY5Y) | selectivity ratio (S1R (sigma-1 receptor)) |
| --- | --- | --- | --- | --- |
| – | – | CN(CCCNC(=O)c1cc(Cl)cc(Cl)c1)Cc1ccccc1 | 4.22 | 2610 |
| < 6.70 | < 7.00 | O=C(NCCCN1CCOCC1)c1ccc(Cl)cc1 [EPROBEMIDE] | < 4.00 | – |
| – | – | CN(CCCNC(=O)c1cccc(Cl)c1)Cc1ccccc1 | < 4.00 | > 10000 |
| < 6.70 | < 7.00 | O=C(NCCN1CCCC1)c1ccc(Cl)cc1 | < 4.00 | – |
| 6.96 | 8.19 | CN(CCNC(=O)c1cccc(Cl)c1Cl)Cc1ccccc1 | < 4.00 | > 15400 |
| < 6.70 | < 7.00 | CN1CCN(CCNC(=O)c2ccc(Cl)cc2)CC1 | < 4.00 | – |
| 6.46 | 7.72 | O=C(NCCCN1Cc2ccccc2C1)c1ccc(Cl)cc1 | < 4.00 | > 5260 |
| – | – | CN(CCCNC(=O)c1ccc(F)cc1)Cc1ccccc1 | < 4.00 | > 5000 |
| 6.70 | – | CN(CCCNC(=O)c1ccc(Br)cc1F)Cc1ccccc1 | < 4.00 | > 34500 |

| Structure (SMILES) | pKi [1] | pKi [2] | pIC50 (SH-SY5Y) | selectivity ratio (S1R (sigma-1 receptor)) |
| --- | --- | --- | --- | --- |
| O=C(NCCN1CCOCC1)c1ccc(Cl)cc1 [MOCLOBEMIDE] | < 6.70 | < 7.00 | < 4.00 | – |
